Laboratory results: PMC5989765, “The safety, tolerability, and pharmacokinetic profile of GSK2838232, a novel 2nd generation HIV maturation inhibitor, as assessed in healthy subjects” (Pharmacology Research & Perspectives, 2018)
“Also recorded” adds a separate entry of the source.

What was measured:
[1] = Pharmacokinetics in healthy subjects, statements across the Phase I studies; format: in vivo, human; settings: for half-life: human, plasma, oral
Protocol: (§1) Blood samples were taken via an indwelling cannula or by direct venipuncture, collected into a di‐potassium ethylenediaminetetraacetic acid (K2 EDTA) tube, and placed on wet ice. Samples were centrifuged at approximately 1500g for 10 minutes at approximately 4°C. Exactly 500 μL of the resulting plasma was transferred into labeled 1.4 mL Matrix TrakMate Tubes containing exactly 500 μL of 50 mmol/L citrate buffer, pH 4.0, and mixed well. When 500 μL of plasma was not able to be transferred, the ratio of plasma to citrate buffer was kept at 1:1. Buffered plasma samples were kept on ice and frozen at −70°C within 1 hour of collection. Plasma samples were analyzed for GSK2838232 using a validated analytical method based on protein precipitation, followed by high performance liquid chromatography with tandem mass spectrometry (HPLC/MS/MS) analysis.
(§2) Extracts were analyzed using HPLC (Shimadzu, Nexera, 30 series) and tandem mass spectrometry detection (HPLC‐MS/MS). The mass spectrometer used was an API‐5500 using IonSpray interface (500 V) in positive mode monitoring. The mass transitions were 809.5 to 255.1 and 816.5 to 262.1 for GSK2838232 and [2H7] GSK2838232 (the isotopically labeled internal standard), respectively. The chromatographic conditions utilized a Waters Acquity UPLC BEH C18 column (50 × 2.1 mm, 1.7 μm) with mobile phases consisting of 1 mmol/L ammonium formate:formic acid (100:0.005) (mobile phase A) and acetonitrile:formic acid (100:0.1) (mobile phase B) at a flow rate of 0.6 mL/min, with pump B at 63% held for 2 minutes. The assay was validated to have precision (%RSD) of 0.7%‐6.5% (within‐run) and 1.0%‐5.9% RSD (between‐run) and with accuracy (%bias) of 0.0%‐1.6%. […] The lower limit of quantification (LLQ) was 0.5 ng/mL, using a 50 μL aliquot of K2EDTA acidified plasma. The higher limit of quantification (HLQ) was 500 ng/mL.
(§3) The PK parameters were calculated by standard noncompartmental analysis based on actual sampling times using WinNonlin Version 6.3 or higher. Estimation of AUC used the linear up/log down trapezoidal rule.

[2] = in vitro, across all species; cited from earlier work
[3] = preclinical; cited from earlier work
[4] = Study 200207: repeat dose 20-50 mg QD for 8 days, SDD, healthy subjects; format: in vivo, human
Protocol: This study was conducted in parallel with Study 200912 and was planned as a two‐part, double‐blind, placebo‐controlled, repeat dose escalation study of GSK2838232 with and without RTV for 8‐11 days. Subjects were randomized 3:1 to receive GSK2838232 or placebo. Part A was designed to evaluate GSK2838232 given alone for 8 days (20 mg and 50 mg GSK2838232 once‐daily (QD) for 8 days, respectively) and Part B was designed to evaluate GSK2838232 when co‐administered with 100 mg RTV QD for 11 days. Because of the occurrence of an SAE that was eventually determined to be unlikely to be related to GSK2838232 (see Safety discussion), the study was terminated early after one cohort in Part B (10 mg GSK2838232 + 100 mg RTV QD) had completed only 5 days of the planned 11‐day regimen.
as §1, §2, §3

[5] = repeated daily dosing with 50 mg, unboosted

CC(C)C1=C2[C@H]3CC[C@@H]4[C@@]5(C)CC[C@H](OC(=O)CC(C)(C)C(=O)O)C(C)(C)[C@@H]5CC[C@@]4(C)[C@]3(C)CC[C@@]2([C@@H](O)CN(CCN(C)C)Cc2ccc(Cl)cc2)CC1=O [GSK2838232]
positive food effect ([1]; capsule formulation discussion): about 1.5 fold | metabolite detected in human plasma ([1]; co‐administration with RTV): O‐glucuronide | absorption with food ([1]; fed state (moderate or high fat meal)): delayed and more variable | increase in AUC with food ([1]; fed versus fasted): ~ 60% | increase in C max with food ([1]; fed versus fasted): ~ 60% | half-life ([1]; nonboosted): ~17 h | half-life ([1]; with RTV): ~34 h | dose proportionality of AUC and C max ([1]; single doses without RTV, 5‐100 mg (SDD, fasted)): proportional PK; also recorded: proportional to dose; also recorded: proportional pharmacokinetics | plasma protein binding [2]: > 99.9% | metabolism pathways [3]: Phase I oxidation (primarily by cytochrome P450 [CYP] 3A4) and Phase II glucuronidation | urinary excretion of drug‐related material [3]: ≤ 1 % administered dose | relatedness of the two cardiovascular events ([4]; Study 200207, after expert evaluation): the likelihood of a relationship was very low | cardiovascular finding: arrhythmia ([4]; Study 200207, one subject, 39 hours after last of eight daily 50 mg doses): a nonsustained ventricular tachycardia (NSVT) that was associated with dyspnea in another | cardiovascular finding: troponin ([4]; Study 200207, one subject, second day of dosing with 20 mg): a mild troponin elevation in one subject | concentration at 39 hours ([4]; human, plasma, oral, one subject, 39 hours after the last of eight daily 50 mg doses, read-out: plasma concentration at the time of the NSVT event): < 1 ng/mL | half-life ([4]; human, plasma, oral, without boosting, repeat dosing, read-out: t½ (converted)): ~15 h | accumulation ratio based on AUC [4, 5]: 1.2 | accumulation ratio based on C max [4, 5]: 1.1 | accumulation ratio based on Cτ [4, 5]: 1.4 | time to steady state ([4]; unboosted): 3 days | dose proportionality of AUC and C max ([4]; unboosted, 20 mg and 50 mg QD for 8 days): slightly less than dose‐proportional | increase in AUC and C max after a 2.5‐fold dose ([4]; unboosted, 20 mg to 50 mg QD for 8 days): approximately 2 fold
